The source of these data is patent US20240108745A1, “BIOACTIVE SUBSTANCE CONJUGATE, PREPARATION METHOD THEREFOR AND USE THEREOF” (MEDILINK THERAPEUTICS (SUZHOU) CO., LTD., priority 2021, published 2024).

As usually defined, the EC50 is the concentration giving half of the maximal effect.

Where two headings read alike, the source gives them in different places.

The subject of series [1] is A549. The series can be described thus: Assay II of bioactive molecules on cell viability in vitro (CCK8). The class given is cell-based. The conditions noted are these: Homo sapiens, CCK8, 3-4 days. On the procedure:
(§1) Tumor cells NUCG-4, PC-9, HT29, NCI-H358, KYSE520, A431 and A549 were first cultured; the bioactive molecules or fragments of the present disclosure were co-cultured with tumor cells, and then CCK8 reagent (Dojindo Laboratories (Shanghai), Cat: CK04, Lot: JJ744) was added, and the activity of dehydrogenase in mitochondria was detected by reading (detection wavelength 450 nm) on a microplate reader (manufacturer: Molecular Devices, model: SpectraMax M2), to evaluate the inhibitory effect of bioactive molecules on cell proliferation.
(§2) In vitro cell viability assay method: the tumor cells were digested by conventional methods using trypsin, and cells in tube were collected and counted, and then resuspended in the corresponding assay media (containing 2% FBS), which was added to a 96-well plate at 5000-10000 cells/well. Bioactive molecules were diluted with DMSO, and then 100 μL was added to a 96-well plate, the initial concentration was 10 μM, followed by 3-fold serial dilution (12 concentration gradients). The plate was incubated for 3-4 days at 37° C. under 5% CO2. Then, 20 μL of CCK8 reagent was added to each well, and the reaction was carried out for 2-6 h. The plate was read on a microplate reader (detection wavelength was 450 nm).

Series [2] has as its system NCI-H358. The series is described as above. The class given is cell-based. Particulars: Homo sapiens, CCK8, 3-4 days. On the procedure: as §1, §2
The subject of series [3] is NUCG-4. Described as above. Particulars: CCK8, 3-4 days. Format: cell-based. On the procedure: as §1, §2
Series [4] has as its system HT29. The description is as above. The class given is cell-based. Particulars: Homo sapiens, HT-29; CCK8, 3-4 days. On the procedure:
as §1, §2

Series [5] concerns PC-9. Described as above. Format: cell-based. Particulars: Homo sapiens, CCK8, 3-4 days. The procedure: as §1, §2
For series [6], the system named is A431. The series is described as above. Format: cell-based. Particulars: Homo sapiens, A-431; CCK8, 3-4 days. The procedure: as §1, §2
Series [7] concerns PANC-1 cells. Description: Assay I of bioactive molecules on cell viability in vitro (CCK8). Format: cell-based. Particulars: Homo sapiens, read-out: EC50(nM), killing of PANC-1 cells. On the procedure:
(§3) Tumor cells were first cultured; the bioactive molecules of the present disclosure were co-cultured with tumor cells, and then CCK8 reagent (Dojindo Laboratories (Shanghai), Cat: CK04, Lot: JJ744) was added, and the activity of dehydrogenase in mitochondria was detected by reading (detection wavelength 450 nm) on a microplate reader (manufacturer: Molecular Devices, model: SpectraMax M2), to evaluate the inhibitory effect of bioactive molecules on cell proliferation.
(§4) In vitro cell viability assay method: bioactive molecules (12 concentration gradients) were diluted with corresponding assay medium (containing 2% FBS). The tumor cells were digested by conventional methods using trypsin, and cells in tube were collected and counted, then resuspended in the corresponding assay media (containing 2% FBS). The diluted bioactive molecules were added to a 96-well plate, followed by the cells. Then, 20 μL of CCK8 reagent was added to each well, and the reaction was carried out for 4 h, then the plate was read on a microplate reader (detection wavelength was 450 nm). The experimental results are shown in Tables 6.1, 6.2, 6.3, 6.4, and 6.5.

Series [8] has as its system HCC1806 cells. The series is described as above. Format: cell-based. The conditions noted are these: Homo sapiens, HCC1806, 72 h; 7500 cells/well, 3 days; read-out: EC50(nM), killing of HCC1806 cells. On the procedure:
as §3, §4

The test system of series [9] is NCl-H322M cells. The description is as above. Format: cell-based. Particulars: Homo sapiens, read-out: EC50(nM), killing of NCl-H322M cells. On the procedure: as §3, §4
Series [10] relates to LS174T cells. The description is as above. The conditions noted are these: Homo sapiens, read-out: EC50(nM), killing of LS174T cells. The class given is cell-based. On the procedure: as §3, §4
In series [11] the test system is HT29 cells. The series can be described thus: Assay III of bioactive molecules on cell viability in vitro (CCK8). The class given is cell-based. Particulars: Homo sapiens, HT-29; CCK8, 3-4 days (Assay III); read-out: EC50(nM), killing of HT29 cells. The procedure: Tumor cells HT29 (having a same source as the above) were first cultured. The bioactive molecules or fragments of the present disclosure were co-cultured with tumor cells, and then CCK8 reagent (Dojindo Laboratories (Shanghai), Cat: CK04, Lot: JJ744) was added, and the activity of dehydrogenase in mitochondria was detected by reading (detection wavelength 450 nm) on a microplate reader (manufacturer: Molecular Devices, model: SpectraMax M2), to evaluate the inhibitory effect of bioactive molecules on cell proliferation.
as §2, with “then” for “then 100 μL was”, “plate at 100 μL,” for “plate,”, “[…],” for “10 μM,”

The conditions of series [12]: human plasma 37° C., ADC 200 μg/mL, A1.9 released from B7H3-ADC-07(DAR8), DXD from B7H3-C1-ADC-21(DAR4). The procedure: The appropriate concentration of internal standard stock solution was prepared with DMSO, and then acetonitrile or other reagents were used to prepare the appropriate concentration of the internal standard-containing precipitant.
Incubation of sample: the bacteriostatic agent ProClin was added to the plasma of each genera (human, cynomolgus monkey, ICR mouse) and PBS containing 1% BSA, and the final concentration of ProClin was 0.1%, Sterile operations were adopted. 40 μL working solution of test substance and 360 μL of human plasma were mixed to prepare 200 μg/mL of incubation sample. The plate was sealed with a film, and then incubated at 37° C. under 5% CO2 in an incubator, with a shaking speed of 80 times/mm. At 0 h, 4 h, 24 h, 2 d, 3 d, 7 d, 10 d, 14 d, 17 d, 21 d and 28 d, 20 μL of plasma sample was transferred, to which was added 200 μL of precipitant (containing internal standard), and completely mixed to precipitate the proteins.
All samples were subject to protein precipitating, and then centrifuged to collect the supernatant, which was diluted with water, and analyzed by LC-MS/MS.

The conditions of series [13]: cited from earlier work.

For `CC[C@@]1(O)C(=O)OCc2c1cc1n(c2=O)Cc2c-1nc1cc(F)c(C)c3c1c2[C@@H](NC(=O)CO)CC3` [DXD, DXd, reference compound], the EC50 in series [1] worked out at 262 nM; in [2], 262 nM; in series [3] it was 43.3 nM; in series [4] it was 210 nM; in [5], 16.7 nM; in series [6], 25.1 nM. Moreover, the EC50 amounted to 966 nM in [7]; 37 nM in series [8]; 76.9 nM in series [9]; 82 nM in series [10]; 22.9 nM in series [11]. The “Release ratio (%)” value was 0.348% in series [12] (day 0); 1.786% in [12] (day 0.17); 2.765% in [12] (day 1); 3.603% in series [12] (day 2); 3.763% in [12] (day 3); 4.116% in series [12] (day 7). Moreover, the “Release ratio (%)” value worked out at 5.126% in series [12] (day 10); 5.786% in series [12] (day 14); 6.446% in series [12] (day 17); 7.494% in series [12] (day 21); 12.659% in series [12] (day 28).

With Trodelvy, the plasma half-life entry in [13] was “less than 24 hours”.
